Assay results: US6355638B1, “Pyrazolo[1,5-d][1,2,4] triazines for enhancing cognition” (Merck Sharp & Dohme Ltd., priority 1999, dated 2002)

What was measured:
[1] = reported in Psychobiology, 21:101-108; cited from earlier work
[2] = background statement; cited from earlier work

Row | melting point [°C] | Compound | spatial learning in the Morris watermaze [1] | proconvulsant activity [2]
1 | 194 to 196 | Cc1cc(-c2nncc3c(-c4ccccc4)c(OCc4ncn(C)n4)nn23)no1 |  | 
2 | 161 to 164 | Cc1cc(-c2nncc3c(C(C)(C)C)c(OCc4ncn(C)n4)nn23)no1 |  | 
3 | 175 to 178 | Cc1cc(-c2nncc3c(C(C)(C)C)c(OCc4ccccn4)nn23)no1 |  | 
4 | 239 to 241 | Cc1cc(-c2nncc3c(Br)c(OCc4ncnn4C)nn23)no1 |  | 
5 | 226 to 228 | Cc1cc(-c2nncc3c(-c4ccco4)c(OCc4ncnn4C)nn23)no1 |  | 

More lines, now with the values behind:

Row | Compound | melting point [°C] | spatial learning in the Morris watermaze [1] | proconvulsant activity [2]
6 | Cc1cc(-c2nncc3c(C(C)(C)C)c(OCc4cccnc4)nn23)no1 | 139 to 141 |  | 
7 | Cc1cc(-c2nncc3c(C(C)(C)C)c(OCc4ccncc4)nn23)no1 | 119 to 121 |  | 
8 | COC(=O)c1cc2c(cn1)[nH]c1ccccc12 [β-CCM] |  | enhanced spatial learning | proconvulsant
